Laboratory results published in patent US4060682A, “Process for the synthetic production of 3-deoxy derivative of an aminoglycosidic antibiotic” (priority 1974, dated 1977).
Values after ≈ are worked out from the molar mass of the structure shown.

What was measured:
Test in all cases: Minimum inhibitory concentration, standard serial dilution method, nutrient agar
Type in all cases: cell-based
[1] = system: Escherichia coli K12 JR66/W677; conditions: K12JR66/W677, 18 h, read-out: Minimum Inhibitory Concentration
Description: (§1) 3'-Deoxyneamine, 3'-deoxy-6'-N-methylneamine, 3'-deoxyribostamycin, 3'-deoxy-6'-N-methylribostamycin, 3'-deoxykanamycin B, 3'-deoxy-6'-N-methylkanamycin B and 3'-deoxyparomamine which are produced by the process of this invention have been confirmed to be identical to their authentic samples, respectively, by making comparison between their n.m.r. spectra (in D2 O), mass spectra of their derivatives, thin layer chromatography on silica gel (developed with 4:5:2:5 n-butanolethanol-chloroform-17% aqueous ammonia) and antibacterial spectra. […] These 3'-deoxy derivatives are of low toxicity similarly to their parent substances and are useful for the therapeutic treatment of infections by gram-positive and gram-negative bacteria. 3'-Deoxyparomamine is useful as an intermediate for synthesis of any valuable derivative of aminoglycosidic antibiotics. The minimum inhibitory concentrations (mcg/ml) of these 3'-deoxy derivatives against various microorganisms were determined according to a standard serial dilution method using nutrient agar incubation medium at 37° C, the estimation being effected after 18 hours incubation.

[2] = system: Escherichia coli K12 LA290 R55; conditions: K12LA290R55, 18 h, read-out: Minimum Inhibitory Concentration
Description: as §1

[3] = system: Escherichia coli K12 ML1410; conditions: K12ML1410, 18 h, read-out: Minimum Inhibitory Concentration
Description: as §1

[4] = system: Escherichia coli K12 ML1629; conditions: K12ML1629, 18 h, read-out: Minimum Inhibitory Concentration
Description: as §1

[5] = system: Escherichia coli K12 W677; conditions: K12W677, 37° C, 18 hours
Description: as §1

Escherichia coli K12 = conditions: K12, 18 h, read-out: Minimum Inhibitory Concentration
Description: as §1

[6] = system: Pseudomonas aeruginosa A3; conditions: A3, 18 h, read-out: Minimum Inhibitory Concentration
Description: as §1

[7] = system: Pseudomonas aeruginosa GN315; conditions: GN315, 18 h, read-out: Minimum Inhibitory Concentration
Description: as §1

[8] = system: Pseudomonas aeruginosa No.12; conditions: NO.12, 18 h, read-out: Minimum Inhibitory Concentration
Description: as §1

[9] = system: Staphylococcus aureus FDA 209P; conditions: FDA209P, 18 h, read-out: Minimum Inhibitory Concentration
Description: as §1

Work on `CNC[C@H]1O[C@H](O[C@H]2[C@H](O)[C@@H](O[C@H]3O[C@H](CO)[C@@H](O)[C@H](N)[C@H]3O)[C@H](N)C[C@@H]2N)[C@H](N)C[C@@H]1O` [3'-Deoxy-6'-N-methylkanamycin B, 3'-deoxy-6'-N-methylkanamycin B] yielded an MIC [1] of 50 µg/mL (≈ 104 µM), an MIC [2] of 50 µg/mL (≈ 104 µM) and an MIC [3] of 1.56 µg/mL (≈ 3.24 µM). It also gave an MIC [4] of 1.56 µg/mL (≈ 3.24 µM), an MIC [5] of 1.56 µg/mL (≈ 3.24 µM) and an MIC (Escherichia coli K12) of 0.78 µg/mL (≈ 1.62 µM). The MIC [6] was 0.78 µg/mL (≈ 1.62 µM), the MIC [7] was 6.25 µg/mL (≈ 13 µM) and the MIC [8] was 0.78 µg/mL (≈ 1.62 µM). For the same compound, the MIC [9] was 1.56 µg/mL (≈ 3.24 µM).
For `NC[C@H]1O[C@H](O[C@H]2[C@H](O)[C@@H](O[C@H]3O[C@H](CO)[C@@H](O)[C@H](N)[C@H]3O)[C@H](N)C[C@@H]2N)[C@H](N)C[C@@H]1O` [3'-Deoxykanamycin B, 3'-deoxykanamycin B], the MIC [1] was 50 µg/mL (≈ 107 µM), the MIC [2] was 50 µg/mL (≈ 107 µM) and the MIC [3] was 0.78 µg/mL (≈ 1.67 µM). It also gave an MIC [4] of 0.78 µg/mL (≈ 1.67 µM), an MIC [5] of 1.56 µg/mL (≈ 3.34 µM) and an MIC (Escherichia coli K12) of 0.78 µg/mL (≈ 1.67 µM). The MIC [6] was 0.78 µg/mL (≈ 1.67 µM), the MIC [7] was 100 µg/mL (≈ 214 µM) and the MIC [8] was 0.78 µg/mL (≈ 1.67 µM). For the same compound, the MIC [9] was 0.78 µg/mL (≈ 1.67 µM).
`NC[C@H]1O[C@H](O[C@H]2[C@H](O)[C@@H](O)[C@H](N)C[C@@H]2N)[C@H](N)C[C@@H]1O` [3'-Deoxyneamine, 3'-deoxyneamine] showed an MIC [1] greater than 100 µg/mL, an MIC [2] of 100 µg/mL (≈ 326 µM) and an MIC [3] of 6.25 µg/mL (≈ 20.4 µM). The MIC [4] was 6.25 µg/mL (≈ 20.4 µM), the MIC [5] was 6.25 µg/mL (≈ 20.4 µM) and the MIC (Escherichia coli K12) was 6.25 µg/mL (≈ 20.4 µM). It also gave an MIC [6] of 6.25 µg/mL (≈ 20.4 µM), an MIC [7] greater than 100 µg/mL and an MIC [8] of 6.25 µg/mL (≈ 20.4 µM). It also gave an MIC [9] of 3.12 µg/mL (≈ 10.2 µM).
Work on `N[C@@H]1C[C@H](O)[C@@H](CO)O[C@@H]1O[C@H]1[C@H](O)[C@@H](O)[C@H](N)C[C@@H]1N` [3'-Deoxyparomamine, 3'-deoxyparomamine] yielded an MIC [1] greater than 100 µg/mL, an MIC [2] of 50 µg/mL (≈ 163 µM) and an MIC [3] greater than 100 µg/mL. The MIC [4] was 100 µg/mL (≈ 325 µM), the MIC [5] was greater than 100 µg/mL and the MIC (Escherichia coli K12) was 100 µg/mL (≈ 325 µM). It also gave an MIC [6] greater than 100 µg/mL, an MIC [7] greater than 100 µg/mL and an MIC [8] greater than 100 µg/mL. For the same compound, the MIC [9] was 50 µg/mL (≈ 163 µM).
Compound `NC[C@H]1O[C@H](O[C@H]2[C@H](O[C@@H]3O[C@H](CO)[C@@H](O)[C@H]3O)[C@@H](O)[C@H](N)C[C@@H]2N)[C@H](N)C[C@@H]1O` [3'-Deoxyribostamycin, 3'-deoxyribostamycin] has an MIC [1] greater than 100 µg/mL, an MIC [2] greater than 100 µg/mL and an MIC [3] of 6.25 µg/mL (≈ 14.3 µM). It also gave an MIC [4] greater than 100 µg/mL, an MIC [5] of 3.12 µg/mL (≈ 7.12 µM) and an MIC (Escherichia coli K12) of 6.25 µg/mL (≈ 14.3 µM). The MIC [6] was 3.12 µg/mL (≈ 7.12 µM), the MIC [7] was greater than 100 µg/mL and the MIC [8] was 3.12 µg/mL (≈ 7.12 µM). The MIC [9] was 6.25 µg/mL (≈ 14.3 µM).
